Reference: patent US9040259B2, “Production of polyketides and other natural products” (Buck Institute for Research on Aging, priority 2002, dated 2015)
Like-named read-outs stand apart in the source and are kept apart here.

Key:
HT29 (colon) = experiment: MTT growth inhibition assay, HT29 (colon) tumour cell line; format: cell-based, human; conditions: for IC50: concentration giving 50% of maximum inhibition, read-out: IC50 (row head: HT29 rIC50)
Method: (§1) Growth inhibition of adherent human tumour cell lines of solid malignancies HT29 (colon) and MCF-7 (breast) was tested in vitro using an MTT (3-(4,5-dimethylthiazol-2-yl)-2,5-diphenyltetrazolium bromide) assay using micro-titre plates (Sieuwerts, A. M., et al., 1995). All cell lines were obtained from either the ATCC (American Type Culture Collection) or ECACC (European Collection of Cell Cultures). All cell lines were grown from frozen stocks and passaged at least once prior to use in RPMI 1640. Cells were harvested from sub-confluent cultures using minimal trypsinization. Cells were diluted to the appropriate density for each cell line (dependent on cell doubling time) in RPMI 1640, and seeded in 60 wells of a 96 well plate in a volume of 100 μl per well (i.e. outside wells of the plate were not used). Plates were incubated at 37° C. overnight. Following this incubation, log scale dilutions of reference and test substances were added in 100 μl per well, 6 replicates were used to test all test compounds, reference compounds and medium controls. Plates were incubated for a further 72 h prior to analysis. MTT (5 mg/ml) was added to each well and plates were re-incubated for 3-4 h. Unreacted MTT was removed from the wells and formazan crystals formed from the MTT were dissolved in DMSO and characteristic absorbance read at 570 nm.

MCF-7 (breast) = experiment: MTT growth inhibition assay, MCF-7 (breast) tumour cell line; format: cell-based, human; conditions: MCF-7 cell line, 72 h; for IC50: concentration giving 50% of maximum inhibition, read-out: IC50 (row head: MCF-7 rIC50)
Method: as §1

[1] = tested on: splenic lymphocytes isolated from C57BL/6 mice; experiment: Mixed lymphocyte reaction (MLR), [3H] thymidine incorporation; format: cell-based; conditions: IC50 quoted as a ratio of the rapamycin IC50; 72 h, 37° C.
Method: Originally developed to assess tissue compatibility prior to allografts, MLR offers an established model for immune reaction in vitro (SOULILLOU, J. P., et al. (1975); T. Meo. “Immunological Methods”, L. Lefkovits and B. Pernis, Eds., Academic Press, N.Y. pp. 227-239 (1979). MLR was performed by mixing splenic lymphocytes isolated from C57BL/6 mice (5×10^5 cells) with inhibited splenic lymphocytes from CBA mice (2.5×10^5 cells). The inhibited CBA lymphocytes induced a proliferative response in C57BU6 lymphocytes and this was determined by [^3H] thymidine incorporation into DNA as a measure of proliferation of splenic lymphocytes isolated from C57BU6 mice. The anti-proliferative effect was assayed for in the presence of log scale dilutions of reference compounds, test compounds and media controls over a 72 h period at 37° C. The concentration of each test compound and reference compound, which inhibited lymphocyte proliferation by 50% (IC50), compared to control proliferation, was calculated for each cell line and quoted as a ratio of the concentration of rapamycin required to inhibit lymphocyte proliferation by 50% (rIC50), see Table XIV.

[2] = tested on: Candida albicans DSM 1386; experiment: Anti-fungal assay, NCCLS M27-A microtitre broth dilution; format: cell-based; conditions: MIC as a ratio of the rapamycin MIC; 37° C., 24 h
Method: (§2) The comparative anti-fungal activities of reference and test compounds were determined against pathogenic fungi Candida albicans DSM 5816, Candida albicans DSM 1386 and Candida glabrata DSM 11226. This was achieved using a microtitre plate adaption of the NCCLS Reference Method for Broth Dilution Antifungal Susceptibility Testing for Yeasts: Approved Standard (M27-A, vol. 17 No. 9. (1997)). Yeast strains were inoculated (10^4 cfu/ml) to RPMI 1640 media containing […] MOPS, pH 7. Growth was determined in the presence of log scale dilutions of reference compounds, test compounds and media controls after incubation with shaking at 37° C., 24 h. Minimum inhibitory concentration (MIC) and minimum fungicidal activity (MFC) were determined for test compounds and expressed as a ratio of the rapamycin minimum inhibitory concentration (rMIC respectively), see Table XV.

[3] = tested on: Candida albicans DSM 5816; experiment: as above; format: cell-based; conditions: MIC as a ratio of the rapamycin MIC; 37° C., 24 h
Method: as §2

[4] = tested on: Candida glabrata DSM 11226; experiment: as above; format: cell-based; conditions: MIC as a ratio of the rapamycin MIC; 37° C., 24 h
Method: as §2

[5] = compared to rapamycin; Wong et al., 1998; cited from earlier work
[6] = compared to rapamycin; Khaw et al., 1998; cited from earlier work
[7] = tested on: mixed lymphocyte reaction; conditions: Nishida et al., 1995; cited from earlier work
[8] = compared to rapamycin; Box et al., 1995; cited from earlier work
FKBP12 = FKBP12 (Homo sapiens, UniProt P62942); conditions: compared to rapamycin; Box et al., 1995; cited from earlier work
Chain of FKBP12 (P62942 whole entry): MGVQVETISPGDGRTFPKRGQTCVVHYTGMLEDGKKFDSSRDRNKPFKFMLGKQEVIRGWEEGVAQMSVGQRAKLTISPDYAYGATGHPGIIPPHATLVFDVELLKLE

murine splenic T cells = conditions: compared to rapamycin; Box et al., 1995; cited from earlier work
murine splenic B cells = conditions: compared to rapamycin; Box et al., 1995; cited from earlier work

## COC1CC2CCC(C)C(O)(CC(=O)N3CCCCC3C(=O)OC(C(C)CC3CCC(O)C(OC)C3)CC(=O)C(C)C=C(C)C(O)CC(=O)C(C)CC(C)C=CC=CC=C1C)O2 (stereo not shown) [Compound 16, 9-deoxo-27-desmethoxy-rapamycin]
HT29 (colon); 72 h
  Im (maximum percentage of inhibition observed): 25%
  IC50: 15.8 nM
MCF-7 (breast)
  Im (maximum percentage of inhibition observed): 32%
  IC50: 2 nM
[1]
  MLR rIC50: >14.7
[2]
  C. albicans DSM 1386 rMIC: 5
[3]
  C. albicans DSM 5816 rMIC: 1
[4]
  C. glabrata DSM 11226 rMIC: 5

## CO[C@@H]1C[C@H](C[C@@H](C)[C@@H]2CC(=O)[C@H](C)/C=C(\C)[C@@H](O)[C@@H](O)C(=O)[C@H](C)C[C@H](C)/C=C/C=C/C=C(\C)[C@@H](O)C[C@@H]3CC[C@@H](C)[C@](O)(CC(=O)N4CCCC[C@H]4C(=O)O2)O3)CC[C@H]1O [Compound 9, 9-deoxo-16-O-desmethyl-27-O-desmethyl-rapamycin]
HT29 (colon); 72 h
  Im (maximum percentage of inhibition observed): 35%
  IC50: 12.6 nM
MCF-7 (breast)
  Im (maximum percentage of inhibition observed): 40%
  IC50: 17.8 nM
[1]
  MLR rIC50: 6.5
[2]
  C. albicans DSM 1386 rMIC: 1
[3]
  C. albicans DSM 5816 rMIC: 1
[4]
  C. glabrata DSM 11226 rMIC: 1

## CC1=CC(C)C(=O)CC(C(C)CC2CCC(O)C(O)C2)OC(=O)C2CCCCN2C(=O)CC2(O)OC(CCC2C)CC(O)C(C)=CC=CC=CC(C)CC(C)C(=O)CC1O (stereo not shown) [Compound 1, 9-deoxo-16-O-desmethyl-27-desmethoxy-39-O-desmethyl-rapamycin]
HT29 (colon); 72 h
  Im (maximum percentage of inhibition observed): 38%
  IC50: 50.1 nM
MCF-7 (breast)
  Im (maximum percentage of inhibition observed): 38%
  IC50: 3.2 nM
[1]
  MLR rIC50: 9.4
[2]
  C. albicans DSM 1386 rMIC: 5
[3]
  C. albicans DSM 5816 rMIC: 1
[4]
  C. glabrata DSM 11226 rMIC: 5

## CO[C@H]1C[C@@H]2CC[C@@H](C)[C@@](O)(O2)C(=O)C(=O)N2CCCC[C@H]2C(=O)O[C@H]([C@H](C)C[C@@H]2CC[C@@H](O)[C@H](OC)C2)CC(=O)[C@H](C)/C=C(\C)[C@@H](O)[C@@H](OC)C(=O)[C@H](C)C[C@H](C)/C=C/C=C/C=C/1C [rapamycin, reference compound]
HT29 (colon); 72 h
  Im (maximum percentage of inhibition observed): 40%
HT29 (colon); Homo sapiens, HT-29, 72 h
  IC50: 200 nM
MCF-7 (breast); Homo sapiens, MCF7
  IC50: 0.03 nM
MCF-7 (breast)
  Im (maximum percentage of inhibition observed): 56%

## COC1CC2CCC(C)C(O)(O2)C(=O)C(=O)N2CCCC2C(=O)OC(C(C)CC2CCC(O)C(OC)C2)CC(=O)C(C)/C=C(\C)C(O)C(OC)C(=O)C(C)CC(C)/C=C/C=C/C=C/1C (stereo not shown) [prolylrapamycin, reference compound]
[5]
  antifungal activities: lower than that of rapamycin

## 4-hydroxyprolyl-26-desmethoxy-rapamycin
[6]
  inhibitory activity in proliferation assays: significantly less than that of rapamycin

## CO[C@@H]1C[C@H](C[C@@H](C)[C@@H]2CC(=O)[C@H](C)/C=C(\C)[C@@H](O)CC(=O)[C@H](C)C[C@H](C)/C=C/C=C/C=C(\C)[C@@H](O)C[C@@H]3CC[C@@H](C)[C@](O)(CC(=O)N4CCCC[C@H]4C(=O)O2)O3)CC[C@H]1O [Compound 6, 9-deoxo-16-O-desmethyl-27-desmethoxy-rapamycin]
HT29 (colon); 72 h
  Im (maximum percentage of inhibition observed): 38%
  IC50: 25 nM
MCF-7 (breast)
  Im (maximum percentage of inhibition observed): 48%
  IC50: 126 nM
[1]
  MLR rIC50: 8.8
[2]
  C. albicans DSM 1386 rMIC: 5
[3]
  C. albicans DSM 5816 rMIC: 1
[4]
  C. glabrata DSM 11226 rMIC: 5

## CO[C@H]1C[C@@H]2CC[C@@H](C)[C@](O)(CC(=O)N3CCCC[C@H]3C(=O)O[C@H]([C@H](C)C[C@@H]3CC[C@@H](O)[C@H](OC)C3)CC(=O)[C@H](C)/C=C(\C)[C@@H](O)[C@@H](OC)C(=O)[C@H](C)C[C@H](C)/C=C/C=C/C=C/1C)O2 [Compound 19, 9-deoxo-rapamycin]
[7]
  mixed lymphocyte reaction (MLR) inhibitory activity: more significant decrease in activity

## 27-desmethoxy-rapamycin [Compound 22]
[5]
  antifungal activities: lower than that of rapamycin

## CO[C@H]1C[C@@H]2CC[C@@H](C)[C@@](O)(O2)C(=O)C(=O)N2CCCC[C@H]2C(=O)O[C@H]([C@H](C)C[C@@H]2CC[C@@H](O)[C@H](OC)C2)CC(=O)[C@H](C)/C=C(\C)[C@@H](O)[C@@H](O)C(=O)[C@H](C)C[C@H](C)/C=C/C=C/C=C/1C [Compound 21, 27-O-desmethyl-rapamycin]
[8]
  antifungal activity: lower than that of rapamycin
FKBP12
  inhibition of FKBP12 PPlase activity: seemed to be increased
Murine splenic T cells
  inhibition of ConA-stimulated proliferation of murine splenic T cells: decreased when compared to rapamycin
Murine splenic B cells
  inhibition of LPS-stimulated proliferation of murine splenic B cells: decreased when compared to rapamycin
[5]
  antifungal activities: lower than that of rapamycin

## CO[C@H]1C[C@@H]2CC[C@@H](C)[C@](O)(CC(=O)N3CCCC[C@H]3C(=O)O[C@H]([C@H](C)C[C@@H]3CC[C@@H](O)[C@H](O)C3)CC(=O)[C@H](C)/C=C(\C)[C@@H](O)[C@@H](O)C(=O)[C@H](C)C[C@H](C)/C=C/C=C/C=C/1C)O2 [Compound 8, 9-deoxo-27-O-desmethyl-39-O-desmethyl-rapamycin]
HT29 (colon); 72 h
  Im (maximum percentage of inhibition observed): 30%
  IC50: 63 nM
MCF-7 (breast)
  Im (maximum percentage of inhibition observed): 38%
  IC50: 20 nM
[1]
  MLR rIC50: 4.1
[2]
  C. albicans DSM 1386 rMIC: 1
[3]
  C. albicans DSM 5816 rMIC: 1
[4]
  C. glabrata DSM 11226 rMIC: 1

## CC1=CC(C)C(=O)CC(C(C)CC2CCC(O)C(O)C2)OC(=O)C2CCCCN2C(=O)C(=O)C2(O)OC(CCC2C)CC(O)C(C)=CC=CC=CC(C)CC(C)C(=O)CC1O (stereo not shown) [Compound 3, 16-O-desmethyl-27-desmethoxy-39-O-desmethyl-rapamycin]
HT29 (colon); 72 h
  Im (maximum percentage of inhibition observed): 37%
  IC50: 63.1 nM
MCF-7 (breast)
  Im (maximum percentage of inhibition observed): 38%
  IC50: 20 nM
[1]
  MLR rIC50: 7.9
[2]
  C. albicans DSM 1386 rMIC: 1
[3]
  C. albicans DSM 5816 rMIC: 1
[4]
  C. glabrata DSM 11226 rMIC: 1
